Source: US20230085307A1, “PYRIDAZINONE COMPOUND AND HERBICIDE” (NISSAN CHEMICAL CORPORATION, priority 2019, published 2023)

Key:
[1] = tested on: oval-leafed pondweed; assay: Test Example 2: herbicidal activity, application during weed generation under submerged conditions (Table 17, symbol C); format: in vivo, oval-leafed pondweed (Monochoria vaginalis); settings: AAH 320 g/ha; application during weed generation, submerged conditions
Procedure, shortened: (§1)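 Mixed weed seedlings in alluvial soil under a 4 cm water layer, greenhouse-grown at 25–30° C. Compound given as a diluted emulsion into the floodwater at the 1–2 leaf stage; response graded after three weeks.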

[2] = tested on: wild oat; assay: Test Example 5: herbicidal effect by foliage application, plastic box (Table 20, symbol I); format: in vivo, wild oat (Avena fatua); settings: foliage application, 320 g/ha, three weeks after application
Procedure, shortened: (§2)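 Foliar spray test: emulsion formulation diluted in water to a set application rate, sprayed onto 14-day-old plants raised in diluvial soil at 25° C to 30° C under glass. Both herbicidal effect and crop effect rated visually three weeks later.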

[3] = tested on: green foxtail; assay: Test Example 5: herbicidal effect by foliage application, plastic box (Table 20, symbol G); format: in vivo, green foxtail (Setaria viridis); settings: foliage application, 320 g/ha, three weeks after application
Procedure, shortened: as §2

[4] = tested on: barnyard grass; assay: Test Example 3: herbicidal effect by foliage application, Wagner pot (Table 18, symbol H); format: in vivo, barnyard grass (Echinochloa crus-galli); settings: for herbicidal effect on barnyard grass (H): 320 g/ha
Procedure, shortened: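 Plants were sown in alluvial soil held under 0.1–0.5 cm standing water and grown 14 days in a greenhouse at 25–30 °C. An emulsifiable formulation, water-diluted to the set dose, was then sprayed onto the foliage, and effects were scored three weeks later using previously defined criteria.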

[5] = tested on: windgrass; assay: Test Example 5: herbicidal effect by foliage application, plastic box (Table 20, symbol L); format: in vivo, windgrass (Apera spica-venti); settings: foliage application, 320 g/ha, three weeks after application
Procedure, shortened: as §2

[6] = tested on: southern crabgrass; assay: Test Example 4: herbicidal effect by soil treatment (Table 19, symbol F); format: in vivo, southern crabgrass (Digitaria ciliaris); settings: amount of applied herbicide 320 g/ha
Procedure, shortened: (§3)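 Step 1: sow seeds in sterilized diluvial soil, cover ~1.5 cm. Step 2: spray diluted emulsion onto soil surface at predetermined rate. Step 3: greenhouse, 25–30° C, three weeks. Step 4: grade effect on each plant by earlier criteria.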

[7] = tested on: persian speedwell; assay: Test Example 5: herbicidal effect by foliage application, plastic box (Table 20, symbol R); format: in vivo, Persian speedwell (Veronica persica); settings: foliage application, 320 g/ha, three weeks after application
Procedure, shortened: as §2

[8] = tested on: southern crabgrass; assay: Test Example 5: herbicidal effect by foliage application, plastic box (Table 20, symbol F); format: in vivo, southern crabgrass (Digitaria ciliaris); settings: foliage application, 320 g/ha, three weeks after application
Procedure, shortened: as §2

[9] = tested on: late watergrass; assay: Test Example 1: herbicidal activity, application before weed generation under submerged conditions (Table 16, symbol A); format: in vivo, late watergrass (Echinochloa oryzicola); settings: amount of applied herbicide 320 g/ha
Procedure, shortened: (§4)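 Submerged Wagner pots (alluvial soil, 4 cm water) sown with weed seeds and planted with 2.5-leaf rice seedlings; emulsifiable concentrate diluted in water applied to water surface on sowing day. Held in greenhouse at 25-30 °C; injury scored 0-5 by herbicidal rate after three weeks.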

[10] = tested on: Japanese bulrush; assay: Test Example 1: herbicidal activity, application before weed generation under submerged conditions (Table 16, symbol B); format: in vivo, Japanese bulrush (Schoenoplectus juncoides); settings: amount of applied herbicide 320 g/ha
Procedure, shortened: as §4

[11] = tested on: redroot pigweed; assay: Test Example 5: herbicidal effect by foliage application, plastic box (Table 20, symbol N); format: in vivo, redroot pigweed (Amaranthus retroflexus); settings: foliage application, 320 g/ha, three weeks after application
Procedure, shortened: as §2

[12] = tested on: barnyard grass; assay: Test Example 4: herbicidal effect by soil treatment (Table 19, symbol H); format: in vivo, barnyard grass (Echinochloa crus-galli); settings: amount of applied herbicide 320 g/ha
Procedure, shortened: as §3

[13] = tested on: lambsquarters; assay: Test Example 5: herbicidal effect by foliage application, plastic box (Table 20, symbol O); format: in vivo, lambsquarters (Chenopodium album); settings: foliage application, 320 g/ha, three weeks after application
Procedure, shortened: as §2

[14] = tested on: chickweed; assay: Test Example 4: herbicidal effect by soil treatment (Table 19, symbol P); format: in vivo, common chickweed (Stellaria media); settings: amount of applied herbicide 320 g/ha
Procedure, shortened: as §3

[15] = tested on: late watergrass; assay: Test Example 2: herbicidal activity, application during weed generation under submerged conditions (Table 17, symbol A); format: in vivo, late watergrass (Echinochloa oryzicola); settings: AAH 320 g/ha; application during weed generation, submerged conditions
Procedure, shortened: as §1

[16] = tested on: blackgrass; assay: Test Example 4: herbicidal effect by soil treatment (Table 19, symbol J); format: in vivo, blackgrass (Alopecurus myosuroides); settings: amount of applied herbicide 320 g/ha
Procedure, shortened: as §3

Row | Structure (SMILES) | herbicidal effect rating, C: oval-leafed pondweed [1] | herbicidal effect on barnyard grass (H) [4] | F: southern crabgrass, herbicidal effect grade [6] | Herbicidal effect, A: late watergrass [9] | Herbicidal effect, B: Japanese bulrush [10] | H: barnyard grass, herbicidal effect grade [12] | P: chickweed, herbicidal effect grade [14] | herbicidal effect rating, A: late watergrass [15] | herbicidal effect on wild oat (I) [2] | herbicidal effect on green foxtail (G) [3] | herbicidal effect on windgrass (L) [5] | herbicidal effect on persian speedwell (R) [7] | herbicidal effect on southern crabgrass (F) [8] | J: blackgrass, herbicidal effect grade [16] | herbicidal effect on lambsquarters (O) [13] | also measured
1 | C=CCOc1ccc2c(-c3c(O)c(C)nn(C)c3=O)c(-c3ccccc3OC)sc2c1 [3-111] | 3 (Herbicidal rate of 40% or more and less than 70%) | 5 (Herbicidal rate of 90% or more (almost completely withered)) | 5 (Herbicidal rate of 90% or more (almost completely withered)) | 5 (Herbicidal rate of 90% or more (almost completely withered)) | 5 (Herbicidal rate of 90% or more (almost completely withered)) | 4 (Herbicidal rate of 70% or more and less than 90%) | 3 (Herbicidal rate of 40% or more and less than 70%) | 4 (Herbicidal rate of 70% or more and less than 90%) | – | – | – | – | – | – | – | I: wild oat, herbicidal effect grade [2]: 4 (Herbicidal rate of 70% or more and less than 90%); G: green foxtail, herbicidal effect grade [3]: 5 (Herbicidal rate of 90% or more (almost completely withered)); L: windgrass, herbicidal effect grade [5]: 5 (Herbicidal rate of 90% or more (almost completely withered)); R: persian speedwell, herbicidal effect grade [7]: 5 (Herbicidal rate of 90% or more (almost completely withered)); F: southern crabgrass, herbicidal effect grade [8]: 5 (Herbicidal rate of 90% or more (almost completely withered)); N: redroot pigweed, herbicidal effect grade [11]: 5 (Herbicidal rate of 90% or more (almost completely withered)); O: lambsquarters, herbicidal effect grade [13]: 5 (Herbicidal rate of 90% or more (almost completely withered))
2 | COc1ccccc1-c1sc2cc(C)c(C)cc2c1-c1c(O)c(C)nn(C)c1=O [5-090] | 0 (Herbicidal rate of 5% or less (almost no effect)) | 5 (Herbicidal rate of 90% or more (almost completely withered)) | 0 (Herbicidal rate of 5% or less (almost no effect)) | 3 (Herbicidal rate of 40% or more and less than 70%) | 3 (Herbicidal rate of 40% or more and less than 70%) | 0 (Herbicidal rate of 5% or less (almost no effect)) | 1 (Herbicidal rate of 5% or more and less than 20%) | 0 (Herbicidal rate of 5% or less (almost no effect)) | 0 (Herbicidal rate of 5% or less (almost no effect)) | 5 (Herbicidal rate of 90% or more (almost completely withered)) | 4 (Herbicidal rate of 70% or more and less than 90%) | 4 (Herbicidal rate of 70% or more and less than 90%) | 1 (Herbicidal rate of 5% or more and less than 20%) | 0 (Herbicidal rate of 5% or less (almost no effect)) | 4 (Herbicidal rate of 70% or more and less than 90%) | –
3 | CCCC(=O)Oc1c(C)nn(C)c(=O)c1-c1c(-c2ccccc2OCC)sc2cc(C)c(C)cc12 [5-095] | 4 (Herbicidal rate of 70% or more and less than 90%) | 5 (Herbicidal rate of 90% or more (almost completely withered)) | 0 (Herbicidal rate of 5% or less (almost no effect)) | 5 (Herbicidal rate of 90% or more (almost completely withered)) | 4 (Herbicidal rate of 70% or more and less than 90%) | 0 (Herbicidal rate of 5% or less (almost no effect)) | 3 (Herbicidal rate of 40% or more and less than 70%) | 4 (Herbicidal rate of 70% or more and less than 90%) | 3 (Herbicidal rate of 40% or more and less than 70%) | 5 (Herbicidal rate of 90% or more (almost completely withered)) | 4 (Herbicidal rate of 70% or more and less than 90%) | 5 (Herbicidal rate of 90% or more (almost completely withered)) | 5 (Herbicidal rate of 90% or more (almost completely withered)) | 0 (Herbicidal rate of 5% or less (almost no effect)) | 3 (Herbicidal rate of 40% or more and less than 70%) | –
4 | CCOc1cc(F)ccc1-c1sc2cc(C)c(C)cc2c1-c1c(O)c(C)nn(C)c1=O [5-103] | 3 (Herbicidal rate of 40% or more and less than 70%) | 5 (Herbicidal rate of 90% or more (almost completely withered)) | 4 (Herbicidal rate of 70% or more and less than 90%) | 5 (Herbicidal rate of 90% or more (almost completely withered)) | 4 (Herbicidal rate of 70% or more and less than 90%) | 1 (Herbicidal rate of 5% or more and less than 20%) | 3 (Herbicidal rate of 40% or more and less than 70%) | 2 (Herbicidal rate of 20% or more and less than 40%) | 4 (Herbicidal rate of 70% or more and less than 90%) | 5 (Herbicidal rate of 90% or more (almost completely withered)) | 5 (Herbicidal rate of 90% or more (almost completely withered)) | 5 (Herbicidal rate of 90% or more (almost completely withered)) | 5 (Herbicidal rate of 90% or more (almost completely withered)) | 0 (Herbicidal rate of 5% or less (almost no effect)) | 4 (Herbicidal rate of 70% or more and less than 90%) | –
5 | COc1ccccc1-c1sc2c(Cl)c(OC)ccc2c1-c1c(O)c(C)nn(C)c1=O [Compound No. 7-001, 4-(7-chloro-6-methoxy-2-(2-methoxyphenyl)benzo[b]thiophen-3-yl)-5-hydroxy-2,6-dimeth ylpyridazin-3-(2H)-one] | 3 (Herbicidal rate of 40% or more and less than 70%) | – | 0 (Herbicidal rate of 5% or less (almost no effect)) | 3 (Herbicidal rate of 40% or more and less than 70%) | 3 (Herbicidal rate of 40% or more and less than 70%) | 3 (Herbicidal rate of 40% or more and less than 70%) | 5 (Herbicidal rate of 90% or more (almost completely withered)) | 3 (Herbicidal rate of 40% or more and less than 70%) | 0 (Herbicidal rate of 5% or less (almost no effect)) | 4 (Herbicidal rate of 70% or more and less than 90%) | 5 (Herbicidal rate of 90% or more (almost completely withered)) | 5 (Herbicidal rate of 90% or more (almost completely withered)) | 0 (Herbicidal rate of 5% or less (almost no effect)) | – | 4 (Herbicidal rate of 70% or more and less than 90%) | Herbicidal effect on H (barnyard grass), foliage application ([4]; amount of applied herbicide 320 g/ha): 5 (Herbicidal rate of 90% or more (almost completely withered))
